Measurements taken from US20190327974A1, “SYNERGISTS FOR IMPROVED PESTICIDES” (priority 2017, published 2019).
Where two headings read alike, the source gives them in different places.

Key:
[1] = tested on: Ostrinia nubilalis (European corn borer); assay: CPE combined with boronic acid derivatives on corn leaves; type: in vivo; details: for toxicity of the boronic acid derivative alone (in words): some larvae death with 3.10 and 3.7 at 6 DAT; for efficacy on addition of the compound compared with CPE used alone (in words): 1 DAT and 3 DAT at the dose of 15.6 g a.i./ha
Experimental: Treatments were performed by spraying a volume of mixture corresponding to 200 l/ha. 4 boxes/condition.
Drying 1 h at 20° C.; Deposit of three leaf fragments per box on water agar (4 box/condition); Infection of each leaf fragment with 4 Ostrinia nubilalis (12 larvae/box); Incubation 18° C./28° C. […] The percentage of mortality was calculated for each assessment times. Statistical analysis of the data was performed with XLSTAT® software (ANOVAs followed by Newman-Keuls tests with a threshold of 5%, see Table below).

293T = assay: Cell toxicity panel, viability (luminescence); type: cell-based; details: Homo sapiens, HEK-293T; Readout: Luminescence; read-out: IC50 Viability Cells, Cell line: 293T
Experimental: (§1) To further establish the safety and cell toxicity of compounds according to this invention, their IC50 in killing a broad panel of human cell lines (including both cancerous and non-cancerous) cell lines was determined, and their cell toxicity was tested.

H23 = assay: Cell toxicity panel, viability (luminescence); type: cell-based, human; details: Readout: Luminescence, read-out: IC50 Viability Cells, Cell line: H23
Experimental: as §1

Hela = assay: Cell toxicity panel, viability (luminescence); type: cell-based, human; details: Readout: Luminescence, read-out: IC50 Viability Cells, Cell line: Hela
Experimental: as §1

Colo205 = assay: Cell toxicity panel, viability (luminescence); type: cell-based, human; details: Readout: Luminescence, read-out: IC50 Viability Cells, Cell line: Colo205
Experimental: as §1

HCT116 = assay: Cell toxicity panel, viability (luminescence); type: cell-based, human; details: Readout: Luminescence, read-out: IC50 Viability Cells, Cell line: HCT116
Experimental: as §1

PC3 = assay: Cell toxicity panel, viability (luminescence); type: cell-based, human; details: Readout: Luminescence, read-out: IC50 Viability Cells, Cell line: PC3
Experimental: as §1

HT29 = assay: Cell toxicity panel, viability (luminescence); type: cell-based, human; details: Readout: Luminescence, read-out: IC50 Viability Cells, Cell line: HT29
Experimental: as §1

HB-2 cells = assay: Cellular toxicity, Cell Titer Glo; type: cell-based, human; details: for IC50: Homo sapiens, 48 h incubation, Cell Titer Glo, read-out: Viability IC50 HB-2; for toxicity to HB-2 cells (in words): 48 h, up to 100 μM
Experimental: A seven-point, two-fold dose response series, with a 100 uM as the upper limit and a DMSO-only control point was generated using an Echo 550 liquid handler (Labcyte Inc.) in 384-well plates. Subsequently, the human breast cell lines MDA-MB-231 (tumorigenic) and HB2 (non-tumorigenic) were seeded (1000 cells/well) using a multi-drop Combi (Thermo Fisher Scientific) on top of the compounds. Plates were then incubated at 37° C. and 5% CO2 for 48 hours upon which cell viability was assessed by adding CellTiter-Glo® (Promega) to the reaction. The luminescence signal was measured on a Pherastar FS multi-mode plate reader (BMG Labtech).

[2] = target: T1, Electrophorus electricus AChE (Electrophorus electricus, UniProt O42275); assay: AChE selectivity (Ellman, acetylthiocholine); type: biochemical; details: for Ki: tested to solubility limit, read-out: Ki Ee AChE
T1 construct: purchased Sigma Type V-S
T1 sequence (O42275 24-633): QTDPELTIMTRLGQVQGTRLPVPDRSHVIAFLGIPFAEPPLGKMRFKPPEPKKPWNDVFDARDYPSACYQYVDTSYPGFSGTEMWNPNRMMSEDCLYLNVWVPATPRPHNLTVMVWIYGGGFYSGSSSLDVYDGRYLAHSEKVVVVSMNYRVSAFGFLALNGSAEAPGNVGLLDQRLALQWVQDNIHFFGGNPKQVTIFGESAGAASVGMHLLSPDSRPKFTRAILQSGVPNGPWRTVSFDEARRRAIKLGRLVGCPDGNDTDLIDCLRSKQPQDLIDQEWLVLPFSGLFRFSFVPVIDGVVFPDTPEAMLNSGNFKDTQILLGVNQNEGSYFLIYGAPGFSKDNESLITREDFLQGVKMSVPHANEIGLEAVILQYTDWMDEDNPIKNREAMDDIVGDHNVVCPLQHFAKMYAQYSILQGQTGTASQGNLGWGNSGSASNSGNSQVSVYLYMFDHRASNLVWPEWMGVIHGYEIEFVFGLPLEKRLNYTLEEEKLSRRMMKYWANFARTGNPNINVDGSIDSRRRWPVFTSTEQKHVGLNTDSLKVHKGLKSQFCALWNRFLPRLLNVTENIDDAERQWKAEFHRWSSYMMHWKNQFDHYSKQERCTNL
Experimental: Initially, the KM for AChE with the substrate acetylthiocholine was determined by monitoring thiocholine production with 5,5′-dithiobis(2-nitrobenzoic acid) (DTNB) at 412 nm. Acetylthiocholine was prepared in assay buffer (100 mM NaH2PO4 pH 7.4) to 10 mM and serially diluted 1-in-2 to achieve concentrations from 10 mM to 0.08 mM while AChE was prepared in 20 mM NaH2PO4 pH 7.0 supplemented with 4 mg/ml BSA to 0.4 nM. […] The reaction was initiated by the addition of 20 μl AChE (40 pM final concentration). Product formation was monitored for six minutes at room temperature and the initial rates of thioester hydrolysis were determined by linear regression using GraphPad Prism. The Michalis constant was determined as before (FIG. 10).
AChE inhibition was determined by assaying the initial rate of acetylthiocholine hydrolysis in the presence of either neat DMSO or the boronic acid compounds in DMSO. […] Reactions were prepared by pipetting 178 μl assay buffer supplemented with acetylthiocholine (to a final concentration of 100 μM) and DTBN (to a final concentration of 300 μM) into wells of a 96-well plate. […] The reaction was initiated by the addition of 20 μl enzyme (final concentration 40 pM). Product formation was monitored for six minutes at room temperature and the initial rates of thioester hydrolysis were determined by linear regression. IC50 and Ki values were determined as described previously (FIG. 9).

[3] = tested on: Lucilia cuprina larvae, laboratory drug-susceptible strain LS; assay: Lucilia cuprina larval bioassay (pupation rate), laboratory strain; type: in vivo; details: for synergism with diazinon (in words): susceptible strain
Experimental: Inhibitor efficacy was determined by treating larvae with diazinon over a range of concentrations, in the presence or absence of the compounds at constant concentrations, and comparing pupation rates.
Two strains of L. cuprina were used: 1) a laboratory reference drug-susceptible strain, LS, derived from collections in the Australian Capital Territory over 40 years ago, with no history of exposure to insecticides; and 2) a field-collected strain, Tara, resistant to diazinon and diflubenzuron (Levot, G. W. & Sales, N. New high level resistance to diflubenzuron detected in the Australian sheep blowfly, Lucilia cuprina (Wiedemann) (Diptera: Calliphoridae). Gen. Appl. Entomol. 31, 43-46 (2002)). The LcαE7 gene was sequenced in each of the strains. Briefly, genomic DNA was prepared from 20 adult female flies from each strain using the DNeasy Blood and Tissue kit (Qiagen). PCR was performed with primers specific to the LcαE7 gene, and the product was cloned into a pGEM-T EASY vector (Promega). Eight clones of the susceptible strain and 10 clones of the resistant strain were sequenced using M13 forward and reverse primers.
Each experiment utilized 50 larvae at each diazinon/malathion concentration. Experiments were replicated three times for diazinon, and twice for malathion. The insecticidal effects were defined by measuring the pupation rate. […] Compounds were also without diazinon or malathion at 1 mg per assay.

[4] = 1 DAT, CPE 2.5 g a.i./ha, boronic acid, where present, 0.2 mg/ml
[5] = 1 DAT, CPE 6.24 g a.i./ha, boronic acid, where present, 0.2 mg/ml
[6] = 1 DAT, CPE 15.6 g a.i./ha, boronic acid, where present, 0.2 mg/ml
[7] = 1 DAT, CPE 39 g a.i./ha, boronic acid, where present, 0.2 mg/ml
[8] = 3 DAT, CPE 2.5 g a.i./ha, boronic acid, where present, 0.2 mg/ml
[9] = 3 DAT, CPE 6.24 g a.i./ha, boronic acid, where present, 0.2 mg/ml
[10] = 3 DAT, CPE 15.6 g a.i./ha, boronic acid, where present, 0.2 mg/ml
[11] = 3 DAT, CPE 39 g a.i./ha, boronic acid, where present, 0.2 mg/ml
[12] = 6 DAT, CPE 2.5 g a.i./ha, boronic acid, where present, 0.2 mg/ml
[13] = 6 DAT, CPE 6.24 g a.i./ha, boronic acid, where present, 0.2 mg/ml
[14] = 6 DAT, CPE 15.6 g a.i./ha, boronic acid, where present, 0.2 mg/ml
[15] = 6 DAT, CPE 39 g a.i./ha, boronic acid, where present, 0.2 mg/ml
[16] = 1 DAT, boronic acid alone 0.2 mg/ml, 12 larvae/box
[17] = 3 DAT, boronic acid alone 0.2 mg/ml, 12 larvae/box
[18] = 6 DAT, boronic acid alone 0.2 mg/ml, 12 larvae/box
[19] = 1 DAT, boronic acid alone 0.2 mg/ml
[20] = 3 DAT, boronic acid alone 0.2 mg/ml
[21] = 6 DAT, boronic acid alone 0.2 mg/ml

CCOP(=S)(OCC)Oc1nc(Cl)c(Cl)cc1Cl [CPE, Chlorpyrifos-ethyl]
Evaluation of Larvae number, Mean [1, 4]: 12
Percentage of efficacy [1, 4]: 0%
Evaluation of Larvae number, Mean [1, 5]: 10.7
Percentage of efficacy [1, 5]: 11%
Evaluation of Larvae number, Mean [1, 6]: 7.3
Percentage of efficacy [1, 6]: 40%
Evaluation of Larvae number, Mean [1, 7]: 3.3
Percentage of efficacy [1, 7]: 72%
Evaluation of Larvae number, Mean [1, 8]: 12
Percentage of efficacy [1, 8]: 0%
Evaluation of Larvae number, Mean [1, 9]: 9.7
Percentage of efficacy [1, 9]: 16%
Evaluation of Larvae number, Mean [1, 10]: 7
Percentage of efficacy [1, 10]: 39%
Evaluation of Larvae number, Mean [1, 11]: 2
Percentage of efficacy [1, 11]: 83%
Evaluation of Larvae number, Mean [1, 12]: 8
Percentage of efficacy [1, 12]: 26%
Evaluation of Larvae number, Mean [1, 13]: 4
Percentage of efficacy [1, 13]: 63%
Evaluation of Larvae number, Mean [1, 14]: 3.5
Percentage of efficacy [1, 14]: 67%
Evaluation of Larvae number, Mean [1, 15]: 1.3
Percentage of efficacy [1, 15]: 88%

Cc1ccc(B(O)O)cc1Br [Compound 1]
IC50 (293T): > 99.8 µM
IC50 (H23; Homo sapiens, NCI-H23): > 99.8 µM
IC50 (Hela; Homo sapiens, HeLa): 37.9 µM
IC50 (Colo205; Homo sapiens, COLO 205): > 99.8 µM
IC50 (HCT116; Homo sapiens, HCT-116): > 99.8 µM
IC50 (PC3; Homo sapiens, PC-3): > 99.8 µM
IC50 (HT29; Homo sapiens, HT-29): > 99.8 µM
IC50 (HB-2 cells): > 100 µM
Ki [2]: > 1000 µM

Cc1ccc(B(O)O)cc1OCc1ccccc1 [Compound 2]
synergism with diazinon (in words) [3]: No synergism was observed
IC50 (293T): 42.9 µM
IC50 (H23; Homo sapiens, NCI-H23): > 99.8 µM
IC50 (Hela; Homo sapiens, HeLa): 4 µM
IC50 (Colo205; Homo sapiens, COLO 205): 91.5 µM
IC50 (HCT116; Homo sapiens, HCT-116): 62.8 µM
IC50 (PC3; Homo sapiens, PC-3): 49.1 µM
IC50 (HT29; Homo sapiens, HT-29): 34.1 µM
toxicity to HB-2 cells (in words) (HB-2 cells): low toxicity
IC50 (HB-2 cells): 20.5 µM
Ki [2]: > 300 µM

OB(O)c1cc(Br)cc(N2CCOCC2)c1 [Compound 3.1]
reduction of diazinon EC50 compared to a diazinon only control ([3]; susceptible laboratory strain): 5.7 fold
Evaluation of Larvae number, Mean [1, 16]: 12
Evaluation of Larvae number, Mean [1, 17]: 12
Evaluation of Larvae number, Mean [1, 18]: 8.3
IC50 (H23): > 99.8 µM
IC50 (Hela): > 99.8 µM
IC50 (Colo205): > 99.8 µM
IC50 (HCT116): > 99.8 µM
IC50 (PC3): > 99.8 µM
IC50 (HT29): > 99.8 µM

CC(C)Oc1cc(Br)cc(B(O)O)c1 [Compound 3.7, 3-Bromo-5-isopropoxyphenylboronic acid]
toxicity of the boronic acid derivative alone (in words) ([1]; 0.2 mg/ml): Absence of significant toxicity
efficacy on addition of the compound compared with CPE used alone (in words) [1]: increased significantly the efficacy
Percentage of efficacy [1, 19]: 3%
Evaluation of Larvae number, Mean [1, 16]: 11.7
Percentage of efficacy [1, 20]: 4%
Evaluation of Larvae number, Mean [1, 17]: 11
Percentage of efficacy [1, 21]: 26%
Evaluation of Larvae number, Mean [1, 18]: 8

OB(O)c1cc(Br)cc(OCc2ccccc2)c1 [Compound 3.9]
synergism with diazinon (in words) [3]: synergism was observed
IC50 (293T): > 99.8 µM
IC50 (H23; Homo sapiens, NCI-H23): 99.3 µM
IC50 (Hela; Homo sapiens, HeLa): 2.1 µM
IC50 (Colo205; Homo sapiens, COLO 205): > 99.8 µM
IC50 (HCT116; Homo sapiens, HCT-116): > 99.8 µM
IC50 (PC3; Homo sapiens, PC-3): > 99.8 µM
IC50 (HT29; Homo sapiens, HT-29): 72.8 µM
toxicity to HB-2 cells (in words) (HB-2 cells): do not exhibit any cellular toxicity

OB(O)c1cc(Br)cc(Oc2ccccc2)c1 [Compound 3.10, 3-Bromo-5-phenoxyfenylboronic acid]
reduction of malathion EC50 compared to a malathion only control ([3]; laboratory strain): 16 fold
synergism with diazinon (in words) [3]: synergism was observed
toxicity of the boronic acid derivative alone (in words) ([1]; 0.2 mg/ml): Absence of significant toxicity
efficacy on addition of the compound compared with CPE used alone (in words) [1]: increased significantly the efficacy
Percentage of efficacy [1, 19]: 0%
Percentage of efficacy [1, 20]: 0%
Percentage of efficacy [1, 21]: 22%
toxicity to HB-2 cells (in words) (HB-2 cells): do not exhibit any cellular toxicity

OB(O)c1cc(Br)cc(N2CCCC2)c1 [Compound 3]
synergism with diazinon (in words) [3]: synergism was observed
IC50 (293T): > 99.8 µM
IC50 (H23; Homo sapiens, NCI-H23): > 99.8 µM
IC50 (Hela; Homo sapiens, HeLa): 8.1 µM
IC50 (Colo205; Homo sapiens, COLO 205): > 99.8 µM
IC50 (HCT116; Homo sapiens, HCT-116): > 99.8 µM
IC50 (PC3; Homo sapiens, PC-3): > 99.8 µM
IC50 (HT29; Homo sapiens, HT-29): > 99.8 µM
IC50 (HB-2 cells): > 100 µM
Ki [2]: 270 µM
inhibition of Electrophorus electricus acetylcholinesterase ([2]; tested to solubility limits (FIG. 9)): > 50%

OB(O)c1ccc2ccccc2c1 [Compound 4]
IC50 (293T): > 99.8 µM
IC50 (Hela; Homo sapiens, HeLa): 32.7 µM
IC50 (Colo205; Homo sapiens, COLO 205): > 99.8 µM
IC50 (HCT116; Homo sapiens, HCT-116): > 99.8 µM
IC50 (PC3; Homo sapiens, PC-3): > 99.8 µM
IC50 (HT29; Homo sapiens, HT-29): > 99.8 µM
IC50 (HB-2 cells): > 100 µM
Ki [2]: > 1000 µM

OB(O)c1ccccc1 [PBA, phenylboronic acid, reference compound]
Ki [2]: > 10000 µM
